Assay results: PMC12736194, “1-Azinyl-1′-Alkenylferrocenes with Anticholinesterase, Antioxidant, and Antiaggregating Activities as Multifunctional Agents for Potential Treatment of Alzheimer’s Disease” (Pharmaceuticals, 2025)

Tests used:
[1] = target: T1, equine (Equus caballus) serum BChE (EcBChE) (Equus caballus, UniProt P81908); assay: Inhibition of EcBChE (spectrophotometric, BTCh iodide substrate); type: biochemical; details: mean ± SEM, n = 3; for Inhibition of EcBChE, % inhibition at 20 μM: compound 20 μM, n.a. = not active; for IC50: K/Na-phosphate buffer pH 7.5, 25 °C
T1 construct: equine (Equus caballus) serum BChE (EcBChE); purchased Sigma-Aldrich; host or cells: horse serum
Protocol: (§1) In these experiments, human (Homo sapiens) erythrocyte AChE (HsAChE), equine (Equus caballus) serum BChE (EcBChE), and porcine (Sus scrofa) liver CES (SsCES) were used because of their ready availability, relatively low cost, and high sequence homology of EcBChE and SsCES to the corresponding human enzymes.
(§2) Enzymes, substrates, and reference compounds were sourced from Sigma-Aldrich (St. Louis, MO, USA). Enzyme activity was measured spectrophotometrically according to [91] using ATCh iodide, BTCh iodide, and 4-NPA as substrates for HsAChE, EcBChE, and SsCES, respectively. Experimental conditions included a K/Na-phosphate buffer (100 mM), at 25 °C, with pH 7.5 for AChE and BChE assays, and pH 8.0 for CES assays. Measurements were conducted on a BioRad Benchmark Plus microplate spectrophotometer (Hercules, CA, USA). Test compounds were dissolved in DMSO with a final solvent concentration of 2% (v/v) in the incubation mixture.

[2] = tested on: porcine (Sus scrofa) liver CES (SsCES); assay: Inhibition of SsCES (spectrophotometric, 4-NPA substrate); type: biochemical; details: mean ± SEM, n = 3; for Inhibition of SsCES, % inhibition at 20 μM: compound 20 μM, n.a. = not active
Text: as §1
Although the dominant carboxylesterase in porcine liver is CES1 [64], the preparation sourced from Sigma-Aldrich is not a purified or recombinant CES1. Therefore, we have designated the preparation used in our experimental studies as SsCES. However, in computational molecular docking studies, it is necessary to choose a single defined protein as the docking target. Thus, the logical choice for our computational studies of CES was the most abundant and best characterized isoform found in porcine liver, which is SsCES1.
as §2

[3] = target: T2, peripheral anionic site (PAS) of Electrophorus electricus AChE (EeAChE) (Electrophorus electricus, UniProt O42275); assay: Propidium displacement from the EeAChE PAS (fluorescence); type: binding; details: compound concentration 20 µM; EeAChE 7 μM, propidium iodide 8 μM, Tris-HCl pH 8.0; n.a. = not active
T2 construct: purchased Sigma-Aldrich type VI-S
Protocol: A fluorescence-based assay assessed the ability of test compounds to competitively displace propidium iodide from AChE’s PAS [65, 93]. […] EeAChE (7 μM) was incubated with 20 μM test compounds in Tris-HCl buffer (pH 8.0) for 15 min, followed by addition of propidium iodide (8 μM) as described in detail in [95]. Fluorescence readings (530 nm excitation, 600 nm emission) were obtained using a FLUOStar Optima microplate reader (LabTech, Ortenberg, Germany). Displacement (%) was calculated.

[4] = target: T3, human β-amyloid (1–42) (HsAβ42) (Homo sapiens, UniProt P05067); assay: Inhibition of HsAβ42 self-aggregation (thioflavin T fluorescence); type: biochemical; details: HsAβ42 50 µM, compound 100 µM, 24 h, 37 °C; n.a. = not active
T3 construct: purchased AnaSpec Inc
Protocol: The potential of compounds from all three groups (1a-e, 5a-e, 7a-d) to inhibit HsAβ42 self-aggregation was evaluated using a Thioflavin T (ThT) fluorescence assay.
Inhibition of HsAβ42 self-aggregation by test compounds was studied using the thioflavin T (ThT) fluorescence method with minor modifications as described in detail in [79]. Lyophilized HFIP-pretreated HsAβ42 (AnaSpec Inc., Fremont, CA, USA, 0.5 mg) was dissolved in DMSO to obtain a stable 500 μM solution. The samples of 50 μM HsAβ42 in 215 mM Na-phosphate buffer pH 8.0 were incubated for 24 h at 37 °C in the absence or presence of 100 μM test compounds. Myricetin in the same concentration was used as a reference. After incubation, 5 μM ThT in 50 mM glycine-NaOH buffer pH 8.5 was added, and the fluorescence was measured at 440 nm (exc.) and 485 nm (emis.) with a FLUOStar Optima microplate reader. Blanks consisted of 215 mM Na-phosphate buffer, pH 8.0, 20% (v/v) DMSO or test compounds, respectively. The inhibition (%) of HsAβ42 self-aggregation by the test compounds was calculated.

[5] = ABTS radical cation scavenging activity assay;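 as to Exp. ABTS, TEAC: same experimental ABTS TEAC values reprinted in Table 4 beside calculated BDE and IP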; details: for IC50: ABTS^•+ 100 μM; for IC50 / ABTS^•+-Scavenging Activity, TEAC: ethanol, 1 h; for Exp. ABTS, TEAC: Ethanol, Table 4; for ABTS^•+-Scavenging Activity, TEAC: Trolox equivalent antioxidant capacity, mean ± SEM, n = 3
[6] = Ferric reducing antioxidant power (FRAP) assay;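 as to Exp. FRAP, TE: same experimental FRAP TE values reprinted in Table 4 beside calculated BDE and IP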; details: for Ferric Reducing Antioxidant Power, TE: Trolox equivalents, acetate buffer pH 3.6, 1 h, 37 °C; for Exp. FRAP, TE: Water, Table 4
[7] = target: T4, human (Homo sapiens) erythrocyte AChE (HsAChE) (Homo sapiens, UniProt P22303); assay: Inhibition of HsAChE (spectrophotometric, ATCh iodide substrate); type: biochemical; details: mean ± SEM, n = 3; for Inhibition of HsAChE, % inhibition at 20 μM: compound 20 μM, n.a. = not active
T4 construct: human (Homo sapiens) erythrocyte AChE (HsAChE); purchased Sigma-Aldrich; host or cells: human erythrocytes
Protocol: as §1, §2

T2 sequence (O42275 24-633): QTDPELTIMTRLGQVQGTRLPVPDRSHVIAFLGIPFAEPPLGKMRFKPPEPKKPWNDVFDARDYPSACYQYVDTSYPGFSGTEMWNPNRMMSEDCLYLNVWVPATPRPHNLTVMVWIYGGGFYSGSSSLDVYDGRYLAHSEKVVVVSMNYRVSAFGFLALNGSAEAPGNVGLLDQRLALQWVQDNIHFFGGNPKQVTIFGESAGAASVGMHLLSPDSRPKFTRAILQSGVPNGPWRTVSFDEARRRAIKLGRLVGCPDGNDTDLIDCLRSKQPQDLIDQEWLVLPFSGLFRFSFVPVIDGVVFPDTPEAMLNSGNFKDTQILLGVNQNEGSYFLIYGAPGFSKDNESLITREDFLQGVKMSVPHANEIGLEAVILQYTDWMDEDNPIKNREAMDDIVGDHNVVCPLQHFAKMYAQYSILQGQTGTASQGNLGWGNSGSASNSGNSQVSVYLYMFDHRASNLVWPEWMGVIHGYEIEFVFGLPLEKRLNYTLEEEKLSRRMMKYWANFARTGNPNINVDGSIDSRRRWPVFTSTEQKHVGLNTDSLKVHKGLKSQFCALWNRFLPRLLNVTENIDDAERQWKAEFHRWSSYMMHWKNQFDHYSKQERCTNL
T3 sequence (P05067 672-713 limits assumed): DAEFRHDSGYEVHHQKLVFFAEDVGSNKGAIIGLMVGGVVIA
T4 sequence (P22303 32-617 isoform P22303-2 limits assumed): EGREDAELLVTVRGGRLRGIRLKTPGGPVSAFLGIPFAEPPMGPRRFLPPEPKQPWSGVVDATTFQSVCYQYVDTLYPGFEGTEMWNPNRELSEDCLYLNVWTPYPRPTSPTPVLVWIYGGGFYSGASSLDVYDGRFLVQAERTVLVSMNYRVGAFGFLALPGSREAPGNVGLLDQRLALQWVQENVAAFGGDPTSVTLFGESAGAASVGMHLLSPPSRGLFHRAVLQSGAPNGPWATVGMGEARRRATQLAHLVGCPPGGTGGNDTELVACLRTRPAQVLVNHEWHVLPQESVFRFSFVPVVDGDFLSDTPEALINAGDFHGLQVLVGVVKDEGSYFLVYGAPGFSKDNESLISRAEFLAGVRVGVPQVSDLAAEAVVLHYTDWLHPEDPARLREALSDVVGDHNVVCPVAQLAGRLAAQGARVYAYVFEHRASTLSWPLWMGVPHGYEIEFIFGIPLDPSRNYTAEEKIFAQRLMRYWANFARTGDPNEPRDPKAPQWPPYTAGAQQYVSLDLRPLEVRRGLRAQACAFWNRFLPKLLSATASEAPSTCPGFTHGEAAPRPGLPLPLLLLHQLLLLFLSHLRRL
T1 sequence (P81908 whole entry): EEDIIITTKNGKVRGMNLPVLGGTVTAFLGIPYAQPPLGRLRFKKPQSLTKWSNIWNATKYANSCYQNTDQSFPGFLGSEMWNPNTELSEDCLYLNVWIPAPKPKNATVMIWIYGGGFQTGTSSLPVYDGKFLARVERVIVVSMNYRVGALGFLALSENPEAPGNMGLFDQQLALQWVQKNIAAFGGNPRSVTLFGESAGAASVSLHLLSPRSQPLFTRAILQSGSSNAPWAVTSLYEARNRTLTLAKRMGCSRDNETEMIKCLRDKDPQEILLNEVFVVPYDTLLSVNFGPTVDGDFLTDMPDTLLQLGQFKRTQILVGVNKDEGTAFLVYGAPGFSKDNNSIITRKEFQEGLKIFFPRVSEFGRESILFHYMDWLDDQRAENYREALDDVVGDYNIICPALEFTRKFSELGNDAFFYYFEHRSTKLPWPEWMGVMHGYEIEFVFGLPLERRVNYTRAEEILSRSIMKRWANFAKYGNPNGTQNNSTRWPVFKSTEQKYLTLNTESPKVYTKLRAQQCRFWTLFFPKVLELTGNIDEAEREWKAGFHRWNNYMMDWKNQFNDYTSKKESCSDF

SMILES	Propidium Displacement, (%) [3]	HsAβ42 self-Aggregation Inhibition, (%) [4]	IC50 [5]	Exp. ABTS, TEAC [5]	ABTS^•+-Scavenging Activity, TEAC [5]	Ferric Reducing Antioxidant Power, TE [6]	Exp. FRAP, TE [6]	further results
[Fe+2].c1cc[cH-]c1.c1ccc(-[c-]2cccc2)nc1 [1a]	zero	43.4 ± 3.4%	10.8 ± 0.6 µM	2.10 ± 0.10	2.1 ± 0.1	2.05 ± 0.02		Inhibition of EcBChE, % inhibition at 20 μM [1]: 20.3 ± 1.4%; Inhibition of SsCES, % inhibition at 20 μM [2]: 17.5 ± 1.3%
[Fe+2].c1cc[cH-]c1.c1ccc(-[c-]2cccc2)[nH+]c1 [1ap]				2.10 ± 0.10			2.05 ± 0.02	
[Fe+2].c1cc[cH-]c1.c1ccc2[nH+]c(-[c-]3cccc3)ccc2c1 [1bp]				4.20 ± 0.20			2.21 ± 0.01	
[Fe+2].c1cc[cH-]c1.c1ccc2c(-[c-]3cccc3)c3ccccc3nc2c1 [1c]	11.2 ± 0.9%	71.0 ± 4.9%	14.6 ± 0.3 µM		1.50 ± 0.08	1.59 ± 0.17		Inhibition of HsAChE, % inhibition at 20 μM [7]: 6.5 ± 0.8%; Inhibition of EcBChE, % inhibition at 20 μM [1]: 21.2 ± 1.6%
[Fe+2].c1cc[cH-]c1.c1ccc2c(-[c-]3cccc3)c3ccccc3[nH+]c2c1 [1cp]				1.50 ± 0.08			1.59 ± 0.17	
[Fe+2].c1cc[c-](-c2ccnnc2)c1.c1cc[cH-]c1 [1e, 1-(pyridazin-4-yl)ferrocene]	zero	53.3 ± 3.7%	9.2 ± 0.5 µM		2.3 ± 0.1	1.72 ± 0.02		Inhibition of EcBChE, % inhibition at 20 μM [1]: 13.1 ± 1.4%
C=C(C)[c-]1cccc1.[Fe+2].c1ccc(-[c-]2cccc2)nc1 [5a]	zero	62.4 ± 4.9%	9.4 ± 0.5 µM	2.20 ± 0.10	2.2 ± 0.1	2.85 ± 0.13		Inhibition of HsAChE, % inhibition at 20 μM [7]: 4.4 ± 1.1%; Inhibition of EcBChE, % inhibition at 20 μM [1]: 18.3 ± 1.6%
C=C(C)[c-]1cccc1.[Fe+2].c1ccc(-[c-]2cccc2)[nH+]c1 [5ap]				2.20 ± 0.10			2.85 ± 1.3	
C=C(C)[c-]1cccc1.[Fe+2].c1ccc2[nH+]c(-[c-]3cccc3)ccc2c1 [5bp]				4.30 ± 0.20			3.13 ± 1.7	
C=C(C)[c-]1cccc1.[Fe+2].c1ccc2c(-[c-]3cccc3)c3ccccc3nc2c1 [5c]	10.5 ± 0.9%	90.1 ± 7.2%	15.8 ± 0.8 µM		1.35 ± 0.06	2.45 ± 0.14		Inhibition of HsAChE, % inhibition at 20 μM [7]: 36.7 ± 3.3%; IC50 [1]: 96.7 ± 6.6 µM
C=C(C)[c-]1cccc1.[Fe+2].c1ccc2c(-[c-]3cccc3)c3ccccc3[nH+]c2c1 [5cp]				1.35 ± 0.06			2.45 ± 0.14	
C=C(C)[c-]1cccc1.[Fe+2].c1cc[c-](-c2ccnnc2)c1 [5e, 1-Isopropenyl-1′-(Pyridazin-4-yl)Ferrocene]	zero	48.6 ± 3.5%	9.3 ± 0.4 µM		2.5 ± 0.2	2.65 ± 0.02		
C=C[c-]1cccc1.[Fe+2].c1ccc(-[c-]2cccc2)nc1 [7a, 1-(Pyridin-2-yl)-1′-Vinylferrocene]	9.6 ± 0.7%	84.6 ± 7.5%	8.4 ± 0.3 µM	2.60 ± 0.03	2.60 ± 0.08	2.13 ± 0.03		IC50 ([7]; K/Na-phosphate buffer pH 7.5, 25 °C): 16.5 ± 1.3 µM; IC50 [1]: 20.1 ± 1.6 µM; Inhibition of SsCES, % inhibition at 20 μM [2]: 18.5 ± 1.6%
C=C[c-]1cccc1.[Fe+2].c1ccc(-[c-]2cccc2)[nH+]c1 [7ap]				2.60 ± 0.03			2.13 ± 0.03	
C=C[c-]1cccc1.[Fe+2].c1ccc2[nH+]c(-[c-]3cccc3)ccc2c1 [7bp]							2.21 ± 0.02	
C=C[c-]1cccc1.[Fe+2].c1ccc2c(-[c-]3cccc3)c3ccccc3[nH+]c2c1 [7cp]							1.36 ± 0.01	
O=[N+]([O-])c1ccc(OP(=O)(O)Oc2ccc([N+](=O)[O-])cc2)cc1 [BNPP, bis-4-nitrophenyl phosphate, reference compound]								IC50 ([2]; K/Na-phosphate buffer pH 8.0, 25 °C): 1800 nM; Inhibition of SsCES, % inhibition at 20 μM [2]: 99.1 ± 0.9%
Cc1c(C)c2c(c(C)c1O)CCC(C)(C(=O)O)O2 (stereo not shown) [Trolox, reference compound]			20.1 ± 1.2 µM		1.0	1.0		
C=C(C)[c-]1cccc1.[Fe+2].c1cc[cH-]c1 [compound 8, isopropenylferrocene, reference compound]	zero		26.3 ± 1.5 µM	0.73 ± 0.04	0.73 ± 0.04	1.1 ± 0.1	1.10 ± 0.10	Inhibition of EcBChE, % inhibition at 20 μM [1]: 3.9 ± 0.8%; Inhibition of SsCES, % inhibition at 20 μM [2]: 2.9 ± 0.6%
C=C[c-]1cccc1.[Fe+2].c1cc[cH-]c1 [compound 9, vinylferrocene, reference compound]	zero	44.9 ± 3.1%	19.4 ± 0.1 µM	1.00 ± 0.04	1.00 ± 0.04	1.04 ± 0.02	1.04 ± 0.02	Inhibition of HsAChE, % inhibition at 20 μM [7]: 4.2 ± 0.9%; Inhibition of SsCES, % inhibition at 20 μM [2]: 23.4 ± 2.1%
